Data taken from publication PMC6886798, “Expression of myeloid Src-family kinases is associated with poor prognosis in AML and influences Flt3-ITD kinase inhibitor acquired resistance” (PLoS ONE, 2019).

Experiments:
Assay in all cases: KINOMEscan
Format in all cases: binding
Settings in all cases: 1.0 µM
[1] = target: T1, RSK3(Kin.Dom.2-C-terminal) (Homo sapiens, UniProt Q15349)
T1 construct: RSK3(Kin.Dom.2-C-terminal); purchased Eurofins/DiscoverX KINOMEscan scanMAX
Protocol: (§1) Kinase retention to the immobilized ligand is then measured using quantitative real-time PCR for each kinase-specific DNA barcode.

FLT3(N841I) = target: T2, FLT3(N841I) (Homo sapiens, UniProt P36888, N841I)
T2 construct: purchased Eurofins/DiscoverX KINOMEscan scanMAX
Protocol: as §1

NEK11 = target: T3, NEK11 (Homo sapiens, UniProt Q8NG66)
T3 construct: purchased Eurofins/DiscoverX KINOMEscan scanMAX
T3 sequence (Q8NG66 whole entry): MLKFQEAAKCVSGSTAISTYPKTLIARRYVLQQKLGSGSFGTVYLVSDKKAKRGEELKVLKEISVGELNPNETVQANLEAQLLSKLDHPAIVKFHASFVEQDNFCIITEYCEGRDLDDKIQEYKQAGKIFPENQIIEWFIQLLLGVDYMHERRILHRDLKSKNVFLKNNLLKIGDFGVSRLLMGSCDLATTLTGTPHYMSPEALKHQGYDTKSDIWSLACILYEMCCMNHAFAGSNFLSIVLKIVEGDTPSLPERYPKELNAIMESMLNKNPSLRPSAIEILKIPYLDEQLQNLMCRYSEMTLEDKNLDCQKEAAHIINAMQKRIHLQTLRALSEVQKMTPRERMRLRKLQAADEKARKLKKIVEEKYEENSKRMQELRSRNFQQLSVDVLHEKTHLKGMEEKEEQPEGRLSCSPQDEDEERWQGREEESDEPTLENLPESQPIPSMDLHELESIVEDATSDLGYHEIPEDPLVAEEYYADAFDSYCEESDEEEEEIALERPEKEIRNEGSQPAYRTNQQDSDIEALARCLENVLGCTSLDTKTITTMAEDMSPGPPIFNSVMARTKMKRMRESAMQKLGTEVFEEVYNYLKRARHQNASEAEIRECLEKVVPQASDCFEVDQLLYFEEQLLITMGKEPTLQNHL
Protocol: as §1

CDK4-cyclinD1 = target: T4, CDK4-cyclinD1 (Homo sapiens, UniProt P11802)
T4 construct: purchased Eurofins/DiscoverX KINOMEscan scanMAX
Protocol: as §1

MAP4K3 = target: T5, MAP4K3 (Homo sapiens, UniProt Q8IVH8)
T5 construct: purchased Eurofins/DiscoverX KINOMEscan scanMAX
Protocol: as §1

MAP4K4 = target: T6, MAP4K4 (Homo sapiens, UniProt O95819)
T6 construct: purchased Eurofins/DiscoverX KINOMEscan scanMAX
Protocol: as §1

PIK3CA(I800L) = target: T7, PIK3CA(I800L) (Homo sapiens, UniProt P42336, I800L)
T7 construct: purchased Eurofins/DiscoverX KINOMEscan scanMAX
Protocol: as §1

TEC = target: T8, TEC (Homo sapiens, UniProt P42680)
T8 construct: purchased Eurofins/DiscoverX KINOMEscan scanMAX
Protocol: as §1

BRK = target: T9, BRK (Homo sapiens, UniProt Q13882)
T9 construct: purchased Eurofins/DiscoverX KINOMEscan scanMAX
Protocol: as §1

TLK1 = target: T10, TLK1 (Homo sapiens, UniProt Q9UKI8)
T10 construct: purchased Eurofins/DiscoverX KINOMEscan scanMAX
Protocol: as §1

MARK1 = target: T11, MARK1 (Homo sapiens, UniProt Q9P0L2)
T11 construct: purchased Eurofins/DiscoverX KINOMEscan scanMAX
Protocol: as §1

TAOK3 = target: T12, TAOK3 (Homo sapiens, UniProt Q9H2K8)
T12 construct: purchased Eurofins/DiscoverX KINOMEscan scanMAX
Protocol: as §1

[2] = target: T13, JAK3(JH1domain-catalytic) (Homo sapiens, UniProt P52333)
T13 construct: JAK3(JH1domain-catalytic); purchased Eurofins/DiscoverX KINOMEscan scanMAX
Protocol: as §1

EPHA2 = target: T14, EPHA2 (Homo sapiens, UniProt P29317)
T14 construct: purchased Eurofins/DiscoverX KINOMEscan scanMAX
Protocol: as §1

PIK3C2B = target: T15, PIK3C2B (Homo sapiens, UniProt O00750)
T15 construct: purchased Eurofins/DiscoverX KINOMEscan scanMAX
T15 sequence (O00750 whole entry): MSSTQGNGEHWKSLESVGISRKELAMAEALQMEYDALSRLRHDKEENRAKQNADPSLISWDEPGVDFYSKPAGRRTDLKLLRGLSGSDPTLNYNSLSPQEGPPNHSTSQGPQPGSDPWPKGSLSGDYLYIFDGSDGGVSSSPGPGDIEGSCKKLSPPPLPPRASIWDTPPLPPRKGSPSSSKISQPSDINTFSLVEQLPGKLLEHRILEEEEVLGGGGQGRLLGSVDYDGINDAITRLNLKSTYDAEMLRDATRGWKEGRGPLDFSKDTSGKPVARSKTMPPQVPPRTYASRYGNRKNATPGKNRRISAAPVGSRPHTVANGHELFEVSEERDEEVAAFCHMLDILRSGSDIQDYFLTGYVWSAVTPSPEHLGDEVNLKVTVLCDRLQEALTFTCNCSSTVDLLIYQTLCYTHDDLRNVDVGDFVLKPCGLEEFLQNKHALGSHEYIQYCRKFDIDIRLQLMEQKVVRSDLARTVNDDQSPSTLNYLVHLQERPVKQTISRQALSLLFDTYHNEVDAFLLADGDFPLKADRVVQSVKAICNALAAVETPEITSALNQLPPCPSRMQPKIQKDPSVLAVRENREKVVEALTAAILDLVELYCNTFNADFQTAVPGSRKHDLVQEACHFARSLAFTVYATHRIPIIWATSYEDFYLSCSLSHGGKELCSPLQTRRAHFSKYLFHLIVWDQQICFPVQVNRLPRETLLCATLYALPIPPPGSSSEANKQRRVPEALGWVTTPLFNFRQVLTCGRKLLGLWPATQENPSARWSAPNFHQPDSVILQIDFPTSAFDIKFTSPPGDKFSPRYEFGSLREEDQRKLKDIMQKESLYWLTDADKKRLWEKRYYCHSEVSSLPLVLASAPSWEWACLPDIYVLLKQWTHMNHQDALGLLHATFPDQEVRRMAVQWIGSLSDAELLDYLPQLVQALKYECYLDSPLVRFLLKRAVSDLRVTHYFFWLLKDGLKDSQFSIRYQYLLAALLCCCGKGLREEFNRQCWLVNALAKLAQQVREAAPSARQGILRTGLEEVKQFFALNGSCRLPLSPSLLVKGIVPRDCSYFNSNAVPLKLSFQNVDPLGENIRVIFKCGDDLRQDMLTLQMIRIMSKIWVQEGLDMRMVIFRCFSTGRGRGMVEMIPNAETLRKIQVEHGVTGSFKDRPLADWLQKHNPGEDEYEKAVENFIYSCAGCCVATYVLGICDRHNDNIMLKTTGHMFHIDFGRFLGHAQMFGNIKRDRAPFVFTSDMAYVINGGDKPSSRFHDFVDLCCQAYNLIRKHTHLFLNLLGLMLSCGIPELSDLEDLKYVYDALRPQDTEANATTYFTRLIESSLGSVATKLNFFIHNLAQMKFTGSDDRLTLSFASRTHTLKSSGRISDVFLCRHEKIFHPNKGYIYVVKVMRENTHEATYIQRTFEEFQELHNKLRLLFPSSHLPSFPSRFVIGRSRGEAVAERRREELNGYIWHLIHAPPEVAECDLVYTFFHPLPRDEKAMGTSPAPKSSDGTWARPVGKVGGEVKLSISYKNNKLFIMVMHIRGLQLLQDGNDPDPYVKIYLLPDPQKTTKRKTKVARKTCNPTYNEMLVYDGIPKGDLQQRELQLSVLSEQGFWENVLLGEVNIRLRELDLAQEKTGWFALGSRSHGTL
Protocol: as §1

S6K1 = target: T16, S6K1 (Homo sapiens, UniProt P23443)
T16 construct: purchased Eurofins/DiscoverX KINOMEscan scanMAX
Protocol: as §1

AMPK-alpha2 = target: T17, AMPK-alpha2 (Homo sapiens, UniProt P54646)
T17 construct: purchased Eurofins/DiscoverX KINOMEscan scanMAX
Protocol: as §1

NEK6 = target: T18, NEK6 (Homo sapiens, UniProt Q9HC98)
T18 construct: purchased Eurofins/DiscoverX KINOMEscan scanMAX
Protocol: as §1

LZK = target: T19, LZK (Homo sapiens, UniProt O43283)
T19 construct: purchased Eurofins/DiscoverX KINOMEscan scanMAX
Protocol: as §1

MAP3K2 = target: T20, MAP3K2 (Homo sapiens, UniProt Q9Y2U5)
T20 construct: purchased Eurofins/DiscoverX KINOMEscan scanMAX
Protocol: as §1

MYO3B = target: T21, MYO3B (Homo sapiens, UniProt Q8WXR4)
T21 construct: purchased Eurofins/DiscoverX KINOMEscan scanMAX
Protocol: as §1

HIPK3 = target: T22, HIPK3 (Homo sapiens, UniProt Q9H422)
T22 construct: purchased Eurofins/DiscoverX KINOMEscan scanMAX
Protocol: as §1

PIK3CA = target: T23, PIK3CA (Homo sapiens, UniProt P42336)
T23 construct: purchased Eurofins/DiscoverX KINOMEscan scanMAX
Protocol: as §1

PLK3 = target: T24, PLK3 (Homo sapiens, UniProt Q9H4B4)
T24 construct: purchased Eurofins/DiscoverX KINOMEscan scanMAX
Protocol: as §1

PIK3CG = target: T25, PIK3CG (Homo sapiens, UniProt P48736)
T25 construct: purchased Eurofins/DiscoverX KINOMEscan scanMAX
Protocol: as §1

p38-delta = target: T26, p38-delta (Homo sapiens, UniProt O15264)
T26 construct: purchased Eurofins/DiscoverX KINOMEscan scanMAX
Protocol: as §1

MST1R = target: T27, MST1R (Homo sapiens, UniProt Q04912)
T27 construct: purchased Eurofins/DiscoverX KINOMEscan scanMAX
Protocol: as §1

CDKL3 = target: T28, CDKL3 (Homo sapiens, UniProt Q8IVW4)
T28 construct: purchased Eurofins/DiscoverX KINOMEscan scanMAX
Protocol: as §1

INSRR = target: T29, INSRR (Homo sapiens, UniProt P14616)
T29 construct: purchased Eurofins/DiscoverX KINOMEscan scanMAX
Protocol: as §1

LRRK2 = target: T30, LRRK2 (Homo sapiens, UniProt Q5S007)
T30 construct: purchased Eurofins/DiscoverX KINOMEscan scanMAX
T30 sequence (Q5S007 whole entry): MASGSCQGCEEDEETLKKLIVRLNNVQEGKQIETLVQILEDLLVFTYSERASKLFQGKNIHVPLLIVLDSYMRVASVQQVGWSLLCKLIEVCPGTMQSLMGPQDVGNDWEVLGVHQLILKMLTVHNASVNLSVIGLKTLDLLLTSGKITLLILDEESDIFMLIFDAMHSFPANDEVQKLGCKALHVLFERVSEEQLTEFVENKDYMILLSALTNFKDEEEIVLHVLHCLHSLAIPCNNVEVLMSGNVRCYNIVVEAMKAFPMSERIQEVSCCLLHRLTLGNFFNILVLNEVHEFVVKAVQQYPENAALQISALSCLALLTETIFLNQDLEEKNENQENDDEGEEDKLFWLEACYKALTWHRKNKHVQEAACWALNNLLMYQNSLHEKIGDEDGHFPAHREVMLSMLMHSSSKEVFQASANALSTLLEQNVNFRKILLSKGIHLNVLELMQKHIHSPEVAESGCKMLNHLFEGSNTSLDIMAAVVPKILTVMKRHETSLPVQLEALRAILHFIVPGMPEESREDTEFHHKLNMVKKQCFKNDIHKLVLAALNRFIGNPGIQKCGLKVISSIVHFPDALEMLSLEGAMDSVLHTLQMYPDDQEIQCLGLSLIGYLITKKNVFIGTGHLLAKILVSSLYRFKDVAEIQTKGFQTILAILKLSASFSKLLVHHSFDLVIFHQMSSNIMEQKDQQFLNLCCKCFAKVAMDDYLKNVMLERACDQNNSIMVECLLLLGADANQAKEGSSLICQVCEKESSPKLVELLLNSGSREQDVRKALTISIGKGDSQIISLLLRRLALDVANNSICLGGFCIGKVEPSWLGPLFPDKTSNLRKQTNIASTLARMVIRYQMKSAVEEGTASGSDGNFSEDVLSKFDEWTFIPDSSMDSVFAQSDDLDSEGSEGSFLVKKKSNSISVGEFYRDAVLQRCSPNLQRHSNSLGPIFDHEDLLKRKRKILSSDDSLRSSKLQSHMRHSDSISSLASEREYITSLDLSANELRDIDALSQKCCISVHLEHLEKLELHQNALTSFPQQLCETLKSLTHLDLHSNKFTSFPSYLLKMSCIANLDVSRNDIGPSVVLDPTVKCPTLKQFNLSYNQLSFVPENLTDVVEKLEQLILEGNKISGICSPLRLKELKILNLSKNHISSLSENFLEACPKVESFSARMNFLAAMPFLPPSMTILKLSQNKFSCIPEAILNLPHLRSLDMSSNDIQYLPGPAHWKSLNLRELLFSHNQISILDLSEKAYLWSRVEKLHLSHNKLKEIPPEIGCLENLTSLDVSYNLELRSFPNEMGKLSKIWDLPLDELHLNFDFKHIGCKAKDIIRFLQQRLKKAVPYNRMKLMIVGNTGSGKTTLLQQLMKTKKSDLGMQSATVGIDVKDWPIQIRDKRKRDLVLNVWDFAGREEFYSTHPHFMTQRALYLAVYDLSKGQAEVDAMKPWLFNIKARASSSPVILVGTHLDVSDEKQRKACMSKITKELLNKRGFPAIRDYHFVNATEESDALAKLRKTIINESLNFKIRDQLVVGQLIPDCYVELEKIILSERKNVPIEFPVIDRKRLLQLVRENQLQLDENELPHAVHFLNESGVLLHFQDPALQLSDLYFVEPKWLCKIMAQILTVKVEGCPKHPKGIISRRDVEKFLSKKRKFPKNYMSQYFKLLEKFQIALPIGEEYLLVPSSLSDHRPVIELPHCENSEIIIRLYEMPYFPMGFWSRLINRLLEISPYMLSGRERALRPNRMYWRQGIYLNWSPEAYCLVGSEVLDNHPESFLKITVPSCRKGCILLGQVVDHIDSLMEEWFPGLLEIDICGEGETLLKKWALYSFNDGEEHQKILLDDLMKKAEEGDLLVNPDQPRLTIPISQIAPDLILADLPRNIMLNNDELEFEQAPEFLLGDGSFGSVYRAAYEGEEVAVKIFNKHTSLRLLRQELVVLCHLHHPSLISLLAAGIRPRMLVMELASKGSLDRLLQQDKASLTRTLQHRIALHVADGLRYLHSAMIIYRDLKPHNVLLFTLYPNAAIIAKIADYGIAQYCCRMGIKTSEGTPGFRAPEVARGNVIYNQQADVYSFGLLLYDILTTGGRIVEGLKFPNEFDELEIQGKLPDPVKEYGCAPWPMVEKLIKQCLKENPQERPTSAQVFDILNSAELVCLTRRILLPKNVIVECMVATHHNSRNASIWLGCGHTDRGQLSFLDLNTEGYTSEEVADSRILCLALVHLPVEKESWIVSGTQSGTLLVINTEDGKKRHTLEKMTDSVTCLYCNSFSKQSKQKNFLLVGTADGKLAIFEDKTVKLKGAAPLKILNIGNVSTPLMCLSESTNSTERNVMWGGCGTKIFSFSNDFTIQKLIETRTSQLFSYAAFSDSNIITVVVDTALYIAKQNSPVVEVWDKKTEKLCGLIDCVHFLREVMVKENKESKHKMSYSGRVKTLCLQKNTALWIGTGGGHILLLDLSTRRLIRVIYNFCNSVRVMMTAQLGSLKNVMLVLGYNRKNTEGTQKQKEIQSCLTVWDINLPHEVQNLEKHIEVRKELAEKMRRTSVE
Protocol: as §1

TNK1 = target: T31, TNK1 (Homo sapiens, UniProt Q13470)
T31 construct: purchased Eurofins/DiscoverX KINOMEscan scanMAX
Protocol: as §1

PCTK2 = target: T32, PCTK2 (Homo sapiens, UniProt Q00537)
T32 construct: purchased Eurofins/DiscoverX KINOMEscan scanMAX
Protocol: as §1

MYLK = target: T33, MYLK (Homo sapiens, UniProt Q15746)
T33 construct: purchased Eurofins/DiscoverX KINOMEscan scanMAX
Protocol: as §1

MRCKA = target: T34, MRCKA (Homo sapiens, UniProt Q5VT25)
T34 construct: purchased Eurofins/DiscoverX KINOMEscan scanMAX
Protocol: as §1

DAPK2 = target: T35, DAPK2 (Homo sapiens, UniProt Q9UIK4)
T35 construct: purchased Eurofins/DiscoverX KINOMEscan scanMAX
Protocol: as §1

FLT3(R834Q) = target: T36, FLT3(R834Q) (Homo sapiens, UniProt P36888, R834Q)
T36 construct: purchased Eurofins/DiscoverX KINOMEscan scanMAX
Protocol: as §1

ACVR2A = target: T37, ACVR2A (Homo sapiens, UniProt P27037)
T37 construct: purchased Eurofins/DiscoverX KINOMEscan scanMAX
Protocol: as §1

IRAK1 = target: T38, IRAK1 (Homo sapiens, UniProt P51617)
T38 construct: purchased Eurofins/DiscoverX KINOMEscan scanMAX
Protocol: as §1

NEK10 = target: T39, NEK10 (Homo sapiens, UniProt Q6ZWH5)
T39 construct: purchased Eurofins/DiscoverX KINOMEscan scanMAX
Protocol: as §1

TSSK3 = target: T40, TSSK3 (Homo sapiens, UniProt Q96PN8)
T40 construct: DNA tag (qPCR barcode); purchased Eurofins/DiscoverX KINOMEscan scanMAX
T40 sequence (Q96PN8 whole entry): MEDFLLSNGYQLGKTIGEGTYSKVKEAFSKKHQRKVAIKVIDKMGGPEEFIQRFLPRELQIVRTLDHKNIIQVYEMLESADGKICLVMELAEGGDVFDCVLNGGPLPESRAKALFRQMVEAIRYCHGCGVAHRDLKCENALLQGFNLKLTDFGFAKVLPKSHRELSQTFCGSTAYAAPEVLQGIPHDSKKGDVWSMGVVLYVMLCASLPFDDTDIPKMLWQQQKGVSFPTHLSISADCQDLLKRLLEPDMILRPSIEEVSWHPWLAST
Protocol: as §1

JNK2 = target: T41, JNK2 (Homo sapiens, UniProt P45984)
T41 construct: purchased Eurofins/DiscoverX KINOMEscan scanMAX
Protocol: as §1

MKK7 = target: T42, MKK7 (Homo sapiens, UniProt O14733)
T42 construct: purchased Eurofins/DiscoverX KINOMEscan scanMAX
Protocol: as §1

CN1CCN(C2CCC(n3cc(-c4ccc(Oc5ccccc5)cc4)c4c(N)ncnc43)CC2)CC1 (stereo not drawn) [A-419259]
% Control [1]: 100%
% Control (FLT3(N841I)): 5.3%
% Control (NEK11): 77%
% Control (CDK4-cyclinD1): 27%
% Control (MAP4K3): 32%
% Control (MAP4K4): 83%
% Control (PIK3CA(I800L)): 98%
% Control (TEC): 9%
% Control (BRK): 0.2%
% Control (TLK1): 93%
% Control (MARK1): 82%
% Control (TAOK3): 100%
% Control [2]: 65%
% Control (EPHA2): 100%
% Control (PIK3C2B): 10%
% Control (S6K1): 27%
% Control (AMPK-alpha2): 42%
% Control (NEK6): 65%
% Control (LZK): 85%
% Control (MAP3K2): 1.7%
% Control (MYO3B): 17%
% Control (HIPK3): 91%
% Control (PIK3CA): 100%
% Control (PLK3): 72%
% Control (PIK3CG): 61%
% Control (p38-delta): 99%
% Control (MST1R): 96%
% Control (CDKL3): 100%
% Control (INSRR): 86%
% Control (LRRK2): 98%
% Control (TNK1): 0%
% Control (PCTK2): 59%
% Control (MYLK): 94%
% Control (MRCKA): 98%
% Control (DAPK2): 98%
% Control (FLT3(R834Q)): 2.7%
% Control (ACVR2A): 100%
% Control (IRAK1): 98%
% Control (NEK10): 100%
% Control (TSSK3): 95%
% Control (JNK2): 94%
% Control (MKK7): 46%
